From PubChem BioAssay (NCI)
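Test compounds were applied to cells in 96-well plates for 48 hours at 5 doses. TGI: concentration producing complete growth inhibition.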

How the values were obtained:
Test in all cases: inhibition of tumour cell growth, NCI panel, 48 h
SF-268 CNS = system: SF-268 CNS
SNB-75 CNS = system: SNB-75 CNS
SK-MEL-2 melanoma = system: SK-MEL-2 melanoma
SF-539 CNS = system: SF-539 CNS
UACC-62 melanoma = system: UACC-62 melanoma
HCC-2998 colon = system: HCC-2998 colon
MOLT-4 leukemia = system: MOLT-4 leukemia
UO-31 renal = system: UO-31 renal
SK-MEL-5 melanoma = system: SK-MEL-5 melanoma
OVCAR-5 ovarian = system: OVCAR-5 ovarian
HCT-116 colon = system: HCT-116 colon
NCI-H460 lung = system: NCI-H460 lung
LOX IMVI melanoma = system: LOX IMVI melanoma
HOP-92 NSCLC = system: HOP-92 NSCLC
SK-MEL-28 melanoma = system: SK-MEL-28 melanoma
SK-OV-3 ovarian = system: SK-OV-3 ovarian
RPMI-8226 leukemia = system: RPMI-8226 leukemia
EKVX NSCLC = system: EKVX NSCLC
HCT-15 colon = system: HCT-15 colon
NCI-H522 lung = system: NCI-H522 lung

In the case of `COc1cccc(CC2Cc3ccccc3CC(=O)N2)c1` (stereo not drawn), the TGI (SF-268 CNS) is reported as greater than 100 µM, the TGI (SNB-75 CNS) is reported as greater than 100 µM and the TGI (SK-MEL-2 melanoma) is reported as greater than 100 µM. The TGI (SF-539 CNS) was greater than 100 µM, the TGI (UACC-62 melanoma) was greater than 100 µM and the TGI (HCC-2998 colon) was greater than 100 µM. For the same compound, the TGI (MOLT-4 leukemia) was greater than 100 µM, the TGI (UO-31 renal) was greater than 100 µM and the TGI (SK-MEL-5 melanoma) was 54.6 µM. It also gave a TGI (OVCAR-5 ovarian) greater than 100 µM, a TGI (HCT-116 colon) greater than 100 µM and a TGI (NCI-H460 lung) of 72.8 µM. The TGI (LOX IMVI melanoma) was 70.9 µM, the TGI (HOP-92 NSCLC) was greater than 100 µM and the TGI (SK-MEL-28 melanoma) was greater than 100 µM. It also gave a TGI (SK-OV-3 ovarian) greater than 100 µM, a TGI (RPMI-8226 leukemia) greater than 100 µM and a TGI (EKVX NSCLC) greater than 100 µM.
`O=C1OCc2cccc3c2-c2c1cccc2C(=O)OC3` was tested, and the TGI (SF-268 CNS) was greater than 100 µM, the TGI (SK-MEL-2 melanoma) was greater than 100 µM and the TGI (SF-539 CNS) was greater than 100 µM. For the same compound, the TGI (UACC-62 melanoma) was greater than 100 µM, the TGI (HCC-2998 colon) was greater than 100 µM and the TGI (HCT-15 colon) was greater than 100 µM. For the same compound, the TGI (MOLT-4 leukemia) was greater than 100 µM, the TGI (UO-31 renal) was greater than 100 µM and the TGI (SK-MEL-5 melanoma) was greater than 100 µM. For the same compound, the TGI (HCT-116 colon) was greater than 100 µM, the TGI (HOP-92 NSCLC) was 92.2 µM and the TGI (SK-MEL-28 melanoma) was greater than 100 µM. For the same compound, the TGI (SK-OV-3 ovarian) was greater than 100 µM, the TGI (RPMI-8226 leukemia) was greater than 100 µM and the TGI (EKVX NSCLC) was greater than 100 µM.
`c1ccc(-c2nnc(-c3nsc4ccccc34)o2)cc1` was tested, and the TGI (SF-268 CNS) was greater than 100 µM, the TGI (SNB-75 CNS) was 19.7 µM and the TGI (SK-MEL-2 melanoma) was greater than 100 µM. For the same compound, the TGI (SF-539 CNS) was greater than 100 µM, the TGI (UACC-62 melanoma) was greater than 100 µM and the TGI (HCC-2998 colon) was greater than 100 µM. It also gave a TGI (HCT-15 colon) greater than 100 µM, a TGI (MOLT-4 leukemia) greater than 100 µM and a TGI (UO-31 renal) greater than 100 µM. For the same compound, the TGI (SK-MEL-5 melanoma) was greater than 100 µM, the TGI (OVCAR-5 ovarian) was greater than 100 µM and the TGI (HCT-116 colon) was greater than 100 µM. For the same compound, the TGI (LOX IMVI melanoma) was greater than 100 µM, the TGI (HOP-92 NSCLC) was greater than 100 µM and the TGI (SK-MEL-28 melanoma) was greater than 100 µM. The TGI (RPMI-8226 leukemia) was greater than 100 µM and the TGI (EKVX NSCLC) was greater than 100 µM.
With `CCOC(=O)C1=C(C)N(NC(N)=O)C2(O)CCCC(=O)C12C` (stereo not drawn) the TGI (SNB-75 CNS) was greater than 100 µM, the TGI (SK-MEL-2 melanoma) was greater than 100 µM and the TGI (SF-539 CNS) was greater than 100 µM. For the same compound, the TGI (UACC-62 melanoma) was greater than 100 µM, the TGI (HCC-2998 colon) was greater than 100 µM and the TGI (HCT-15 colon) was greater than 100 µM. For the same compound, the TGI (NCI-H522 lung) was greater than 100 µM, the TGI (SK-MEL-5 melanoma) was greater than 100 µM and the TGI (OVCAR-5 ovarian) was greater than 100 µM. It also gave a TGI (LOX IMVI melanoma) greater than 100 µM, a TGI (HOP-92 NSCLC) greater than 100 µM and a TGI (SK-MEL-28 melanoma) greater than 100 µM. For the same compound, the TGI (SK-OV-3 ovarian) was greater than 100 µM and the TGI (RPMI-8226 leukemia) was greater than 100 µM.
Compound `O=C(O)C12CCCC(CCC1)C2` has a TGI (SF-268 CNS) greater than 100 µM, a TGI (SNB-75 CNS) greater than 100 µM and a TGI (SK-MEL-2 melanoma) greater than 100 µM. The TGI (SF-539 CNS) was greater than 100 µM, the TGI (UACC-62 melanoma) was greater than 100 µM and the TGI (HCT-15 colon) was greater than 100 µM. For the same compound, the TGI (NCI-H522 lung) was greater than 100 µM, the TGI (MOLT-4 leukemia) was greater than 100 µM and the TGI (UO-31 renal) was greater than 100 µM. It also gave a TGI (SK-MEL-5 melanoma) greater than 100 µM, a TGI (OVCAR-5 ovarian) greater than 100 µM and a TGI (HCT-116 colon) greater than 100 µM. It also gave a TGI (NCI-H460 lung) greater than 100 µM, a TGI (LOX IMVI melanoma) greater than 100 µM and a TGI (HOP-92 NSCLC) greater than 100 µM. For the same compound, the TGI (SK-MEL-28 melanoma) was greater than 100 µM, the TGI (SK-OV-3 ovarian) was greater than 100 µM and the TGI (RPMI-8226 leukemia) was greater than 100 µM. It also gave a TGI (EKVX NSCLC) greater than 100 µM.
Compound `CC(C)C1OC(/C=C/c2ccccc2)OCC1(C)C` (stereo not drawn) has a TGI (SF-268 CNS) greater than 100 µM, a TGI (SNB-75 CNS) of 78.6 µM and a TGI (SK-MEL-2 melanoma) of 37.5 µM. The TGI (UACC-62 melanoma) was greater than 100 µM, the TGI (HCC-2998 colon) was 38.5 µM and the TGI (HCT-15 colon) was greater than 100 µM. The TGI (NCI-H522 lung) was 32.2 µM, the TGI (UO-31 renal) was greater than 100 µM and the TGI (SK-MEL-5 melanoma) was 37.5 µM. For the same compound, the TGI (OVCAR-5 ovarian) was greater than 100 µM, the TGI (HCT-116 colon) was 92 µM and the TGI (NCI-H460 lung) was 39.9 µM. The TGI (LOX IMVI melanoma) was 36.6 µM, the TGI (HOP-92 NSCLC) was 52.5 µM and the TGI (SK-MEL-28 melanoma) was greater than 100 µM. For the same compound, the TGI (SK-OV-3 ovarian) was greater than 100 µM, the TGI (RPMI-8226 leukemia) was 47 µM and the TGI (EKVX NSCLC) was 82.3 µM.
`NC(CCOCCP(=O)(O)CCOCCC(N)C(=O)O)C(=O)O` (stereo not drawn) gave a TGI (SF-268 CNS) greater than 100 µM, a TGI (SNB-75 CNS) greater than 100 µM and a TGI (SK-MEL-2 melanoma) greater than 100 µM. It also gave a TGI (SF-539 CNS) greater than 100 µM, a TGI (UACC-62 melanoma) greater than 100 µM and a TGI (HCC-2998 colon) greater than 100 µM. For the same compound, the TGI (HCT-15 colon) was greater than 100 µM, the TGI (NCI-H522 lung) was greater than 100 µM and the TGI (MOLT-4 leukemia) was greater than 100 µM. It also gave a TGI (UO-31 renal) greater than 100 µM, a TGI (SK-MEL-5 melanoma) greater than 100 µM and a TGI (OVCAR-5 ovarian) greater than 100 µM. For the same compound, the TGI (HCT-116 colon) was greater than 100 µM, the TGI (NCI-H460 lung) was greater than 100 µM and the TGI (HOP-92 NSCLC) was greater than 100 µM. For the same compound, the TGI (SK-MEL-28 melanoma) was greater than 100 µM, the TGI (SK-OV-3 ovarian) was greater than 100 µM and the TGI (RPMI-8226 leukemia) was greater than 100 µM. It also gave a TGI (EKVX NSCLC) greater than 100 µM.
`CCCCC(=O)Oc1ccc2c(C)cc(=O)oc2c1` gave a TGI (SF-268 CNS) greater than 100 µM, a TGI (SNB-75 CNS) greater than 100 µM and a TGI (SK-MEL-2 melanoma) greater than 100 µM. The TGI (SF-539 CNS) was greater than 100 µM, the TGI (UACC-62 melanoma) was greater than 100 µM and the TGI (HCC-2998 colon) was greater than 100 µM. For the same compound, the TGI (NCI-H522 lung) was greater than 100 µM, the TGI (MOLT-4 leukemia) was greater than 100 µM and the TGI (UO-31 renal) was greater than 100 µM. For the same compound, the TGI (SK-MEL-5 melanoma) was greater than 100 µM, the TGI (OVCAR-5 ovarian) was greater than 100 µM and the TGI (HCT-116 colon) was greater than 100 µM. It also gave a TGI (NCI-H460 lung) greater than 100 µM, a TGI (LOX IMVI melanoma) greater than 100 µM and a TGI (HOP-92 NSCLC) greater than 100 µM. For the same compound, the TGI (SK-MEL-28 melanoma) was greater than 100 µM, the TGI (RPMI-8226 leukemia) was greater than 100 µM and the TGI (EKVX NSCLC) was greater than 100 µM.
`CCCCS(=O)(=O)Nc1ccc(Nc2c3ccccc3nc3ccccc23)c(OC)c1` was tested, and the TGI (SF-268 CNS) was 14.5 µM, the TGI (SNB-75 CNS) was 7.69 µM and the TGI (SK-MEL-2 melanoma) was 30.9 µM. It also gave a TGI (SF-539 CNS) of 5.98 µM, a TGI (UACC-62 melanoma) of 7.48 µM and a TGI (HCC-2998 colon) of 16.7 µM. The TGI (HCT-15 colon) was 9.11 µM, the TGI (NCI-H522 lung) was 18.7 µM and the TGI (MOLT-4 leukemia) was 3.97 µM. It also gave a TGI (UO-31 renal) of 10.2 µM, a TGI (SK-MEL-5 melanoma) of 18.1 µM and a TGI (OVCAR-5 ovarian) of 26.6 µM. The TGI (HCT-116 colon) was 8.11 µM, the TGI (NCI-H460 lung) was 5.79 µM and the TGI (LOX IMVI melanoma) was 3.85 µM. It also gave a TGI (HOP-92 NSCLC) of 9.08 µM, a TGI (SK-MEL-28 melanoma) of 16.4 µM and a TGI (SK-OV-3 ovarian) of 16.9 µM. The TGI (RPMI-8226 leukemia) was greater than 21.4 µM and the TGI (EKVX NSCLC) was 14.4 µM.
